Measured values as given in article PMC11012124, “Synthesis of Novel Triazine-Based Chalcones and 8,9-dihydro-7H-pyrimido[4,5-b][1,4]diazepines as Potential Leads in the Search of Anticancer, Antibacterial and Antifungal Agents” (International Journal of Molecular Sciences, 2024).

Columns and labels:
[1] = tested on: LOX IMVI; experiment: cells; conditions: Homo sapiens, 48 h
[2] = tested on: A549/ATCC; experiment: cells; conditions: Homo sapiens, A549, 48 h
[3] = tested on: HCT-116; experiment: cells; conditions: Homo sapiens, HCT-116, 48 h
[4] = tested on: HCC-2998; experiment: cells; conditions: Homo sapiens, HCC 2998, 48 h
[5] = tested on: MCF7; experiment: cells; conditions: Homo sapiens, MCF7, 48 h
[6] = tested on: HOP-92; experiment: cells; conditions: Homo sapiens, HOP-92, 48 h
[7] = tested on: BT-549; experiment: cells; conditions: Homo sapiens, BT-549, 48 h
[8] = tested on: SN12C; experiment: cells; conditions: Homo sapiens, 48 h
[9] = tested on: 60 cancer cell lines; experiment: NCI-60 one-dose screen (10 μM); type: cell-based; conditions: Homo sapiens; one dose of 10 μM, mean over 60 cancer cell lines; read-out: Mean Growth Percent (MGP)
Source text: Additionally, the mean of the growth percentages (MGP) of each compound against all the 60 cancer cell lines is also reported, which is used as one of the selection criteria to continue with tests at five concentration doses.

[10] = tested on: ACHN; experiment: cells; conditions: Homo sapiens, 48 h
[11] = tested on: UACC-257; experiment: cells; conditions: Homo sapiens, UACC-257, 48 h
[12] = tested on: SNB-75; experiment: cells; conditions: Homo sapiens, SNB-75, 48 h
[13] = tested on: PC-3; experiment: cells; conditions: Homo sapiens, PC-3, 48 h
[14] = tested on: K-562; experiment: cells; conditions: Homo sapiens, K562, 48 h
[15] = tested on: SK-MEL-28; experiment: cells; conditions: Homo sapiens, SK-MEL-28, 48 h
[16] = tested on: IGROV1; experiment: cells; conditions: Homo sapiens, IGROV-1, 48 h
[17] = tested on: HL-60(TB); experiment: cells; conditions: Homo sapiens, HL-60, 48 h
[18] = tested on: NCI-H460; experiment: cells; conditions: Homo sapiens, NCI-H460, 48 h
[19] = tested on: OVCAR-8; experiment: cells; conditions: Homo sapiens, OVCAR-8, 48 h
[20] = tested on: EKVX; experiment: cells; conditions: Homo sapiens, 48 h
[21] = tested on: MDA-MB-231/ATCC; experiment: cells; conditions: Homo sapiens, MDA-MB-231, 48 h
[22] = tested on: OVCAR-5; experiment: cells; conditions: Homo sapiens, OVCAR-5, 48 h
[23] = tested on: TK-10; experiment: cells; conditions: Homo sapiens, TK-10, 48 h
[24] = tested on: NCI-H23; experiment: cells; conditions: Homo sapiens, NCI-H23, 48 h
[25] = tested on: RPMI-8226; experiment: cells; conditions: Homo sapiens, RPMI-8226, 48 h
[26] = tested on: NCI-H226; experiment: cells; conditions: Homo sapiens, NCI-H226, 48 h
[27] = tested on: SK-OV-3; experiment: cells; conditions: Homo sapiens, SK-OV-3, 48 h
[28] = tested on: MDA-MB-435; experiment: cells; conditions: Homo sapiens, MDA-MB-435, 48 h
[29] = tested on: MOLT-4; experiment: cells; conditions: Homo sapiens, MOLT-4, 48 h
[30] = tested on: CCRF-CEM; experiment: cells; conditions: Homo sapiens, 48 h
[31] = tested on: M14; experiment: cells; conditions: Homo sapiens, M14, 48 h
[32] = tested on: SF-539; experiment: cells; conditions: Homo sapiens, SF-539, 48 h
[33] = tested on: SW-620; experiment: cells; conditions: Homo sapiens, SW-620, 48 h
[34] = tested on: A498; experiment: cells; conditions: Homo sapiens, A498, 48 h
[35] = tested on: HS 578T; experiment: cells; conditions: Homo sapiens, 48 h
[36] = tested on: MALME-3M; experiment: cells; conditions: Homo sapiens, 48 h
[37] = Hemolytic activity, spectrophotometric; type: cell-based, human; conditions: human, human red blood cells (huRBC), 5% hematocrit, 200 μg/mL, 37 °C

## COc1cc(/C=C/C(=O)c2ccccc2)ccc1Oc1nc(Nc2ccc(F)cc2)nc(N(C)C)n1 [21a]
[1]
  GI50: 1.6 µM
[1]; read-out: LC50, LOX IMVI, 48 h
  CC50: 6.23 µM
[2]
  GI50: 11.7 µM
[2]; read-out: LC50
  CC50: > 100 µM
[3]
  GI50: 3.21 µM
[3]; read-out: LC50
  CC50: 45.5 µM
[4]
  GI50: 12.9 µM
[4]; read-out: LC50
  CC50: > 100 µM
[5]
  GI50: 3.08 µM
[5]; read-out: LC50
  CC50: 78.2 µM
[6]
  GI50: 2.08 µM
[6]; read-out: LC50
  CC50: > 100 µM
[7]
  GI50: 12 µM
[7]; read-out: LC50
  CC50: 68.1 µM
[8]
  GI50: 7.32 µM
[8]; read-out: LC50
  CC50: 54.5 µM
[9]
  activity at 10 µM: 24.6%
[10]
  GI50: 8.29 µM
[10]; read-out: LC50
  CC50: > 100 µM
[11]
  GI50: 6.44 µM
[11]; read-out: LC50
  CC50: > 100 µM
[12]
  GI50: 4.7 µM
[12]; read-out: LC50
  CC50: > 100 µM
[13]
  GI50: 10 µM
[13]; read-out: LC50
  CC50: > 100 µM
[14]; K-562, 48 h
  GI50: 3.57 µM
[14]; read-out: LC50
  CC50: > 100 µM
[15]
  GI50: 12.2 µM
[15]; read-out: LC50
  CC50: 84.6 µM
[16]
  GI50: 18.7 µM
[16]; read-out: LC50
  CC50: > 100 µM
[17]
  GI50: 8.37 µM
[17]; read-out: LC50
  CC50: > 100 µM
[18]
  GI50: 9.14 µM
[18]; read-out: LC50
  CC50: 93.2 µM
[19]
  GI50: 5.9 µM
[19]; read-out: LC50
  CC50: 97.6 µM
[20]
  GI50: 4.73 µM
[20]; read-out: LC50
  CC50: > 100 µM
[21]
  GI50: 6.92 µM
[21]; read-out: LC50
  CC50: 56.1 µM
[22]
  GI50: 13.9 µM
[22]; read-out: LC50
  CC50: > 100 µM
[23]
  GI50: 18 µM
[23]; read-out: LC50
  CC50: > 100 µM
[24]
  GI50: 12.6 µM
[24]; read-out: LC50
  CC50: > 100 µM
[25]
  GI50: 2.83 µM
[25]; read-out: LC50
  CC50: > 100 µM
[26]
  GI50: 4.94 µM
[26]; read-out: LC50
  CC50: 64.9 µM
[27]
  GI50: 48.6 µM
[27]; read-out: LC50
  CC50: > 100 µM
[28]
  GI50: 7.39 µM
[28]; read-out: LC50
  CC50: 94.3 µM
[29]
  GI50: 2.56 µM
[29]; read-out: LC50
  CC50: > 100 µM
[30]
  GI50: 3.38 µM
[30]; read-out: LC50
  CC50: > 100 µM
[31]
  GI50: 13 µM
[31]; read-out: LC50
  CC50: > 100 µM
[32]
  GI50: 13.8 µM
[32]; read-out: LC50, SF-539, 48 h
  CC50: 51.7 µM
[33]
  GI50: 1.81 µM
[33]; read-out: LC50
  CC50: 8.7 µM
[34]
  GI50: 27 µM
[34]; read-out: LC50
  CC50: > 100 µM
[35]
  GI50: 5.44 µM
[35]; read-out: LC50
  CC50: > 100 µM
[36]
  GI50: 15.9 µM
[36]; read-out: LC50
  CC50: 98.8 µM
[37]
  hemolysis at 24 h, 200 µg/mL: 2%
